Tests used:
[1] = test system: H1975, H1650 and H1299 human lung cancer cell lines (parental and drug resistant); assay: Drug sensitivity in parental and DR cell lines, Cell Titer Glo cell viability; format: cell-based
Description: To investigate drug resistance to EGFR TKIs, we developed lapatinib resistant human lung cancer cell lines as model for de novo drug resistance. To derive drug resistant (DR) cells, H1975 human lung cancer cells, that carry L858R and T790M point mutations in exons 20 and 21 of EGFR, were grown in a static concentration of lapatinib for up to 30 days. We also developed EGFR TKI resistant H1650 and H1299 human lung cancer cell lines to confirm any potential findings in cell lines with different EGFR mutations, thereby enhancing the reproducibility and relevance of the work. The drug sensitivity of the parental and DR cells on both the monolayer and the 3D scaffold were determined by testing a panel of standard-of-care chemotherapeutics along with EGFR TKIs. Drug sensitivity in parental- and DR-cell lines were determined. Cells were treated in triplicates with indicated concentrations of the identified drug for 72 hours in monolayer cultures and for 48 hours in scaffold cultures. For cells grown on the scaffold, drugs were added on day 3, as compared to 24 hours for monolayer. Cell viability was determined using Cell Titer Glo assay (Promega). Average luminescence as a percentage of control in lapatinib treated cultures on the monolayer (Blue) and the scaffold (Red) is shown. Experiments were repeated at least two times. […]

p-EGFR = assay: Western blot of whole cell lysates (cleaved EGFR, p-EGFR, CYP51A1) after drug treatment; format: cell-based, human; conditions: treated 48 hours
Description: Cells were treated with lapatinib or ketoconazole for 48 hours. The expression of cleaved EGFR, p-EGFR, CYP51A1 were examined using western blotting of the whole cell lysates. β-Actin was included as a loading control.

H1650 cells = assay: Development of lapatinib resistance in parental H1650 cells, bright field microscopy; format: cell-based, human; conditions: drugs added at plating, 72 hours
Description: Drug-resistant cells (DR) were compared to parental cell lines. 500,000 H1650 cells were plated in 1 well of a 6-well plate and treated with the indicated drugs at the time of plating. They were allowed to grow for 72 hours.

Nc1ccn([C@@H]2O[C@H](CO)[C@@H](O)C2(F)F)c(=O)n1 [gemcitabine]
resistance of EGFR TKI resistant cells to other anti-cancer agents [1]: resistant

CC(=O)N1CCN(c2ccc(OCC3COC(Cn4ccnc4)(c4ccc(Cl)cc4Cl)O3)cc2)CC1 (centres unmarked) [ketoconazole]
p-EGFR in the H1650-DR cells (p-EGFR; H1650-DR cells, western blot): inhibited p-EGFR
EGFR downstream signaling (p-EGFR; western blot of whole cell lysates): induced lowering of EGFR downstream signaling
development of lapatinib resistance in parental H1650 cells (H1650 cells): alleviated development of lapatinib resistant

CC(=O)O[C@H]1C(=O)[C@@]2(C)[C@H]([C@H](OC(=O)c3ccccc3)[C@]3(O)C[C@H](OC(=O)[C@H](O)[C@@H](NC(=O)c4ccccc4)c4ccccc4)C(C)=C1C3(C)C)[C@]1(OC(C)=O)CO[C@@H]1C[C@@H]2O [taxol]
resistance of EGFR TKI resistant cells to other anti-cancer agents [1]: resistant

From patent US10813935B2, “Methods and compositions for treating drug resistance in cancer” (UNIVERSITY OF SOUTH FLORIDA, priority 2017, dated 2020)
